Results as given in patent publication US9012493B2, “1-heterodiene derivative and pest control agent” (Nippon Soda Co., Ltd., priority 2009, dated 2015).

Experiments:
Type in all cases: in vivo
[1] = test system: Rice Armyworm (Mythimna Separata); assay: Efficacy test against rice armyworm, corn leaf dip; settings: 125 ppm, emulsifiable concentrate diluted with water, corn leaves immersed, second instar larvae, after 5 days, 25° C.
Outline: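 Corn leaves dipped 30 s in compound diluted to 125 ppm from an emulsifiable concentrate, air-dried, then offered to five second-instar larvae. Held at 25° C and 65% humidity; mortality scored after 5 days as dead/released ×100. Run in duplicate.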

[2] = test system: Cotton Aphid (Aphis Gossypii); assay: Efficacy test against cotton aphid, spray on cucumber plant; settings: 125 ppm, emulsifiable concentrate diluted with water, sprayed over cucumber plant with nymphs, after 5 days, 25° C.
Outline: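 Cucumber plants (~10 days after sprouting) carrying nymphs deposited by cotton aphid adults over 1 day were sprayed with emulsifiable concentrate diluted to 125 ppm compound. Plants were kept at 25 °C and 65% humidity. Mortality after 5 days gave the insecticidal rate (dead/released ×100), from two replicates.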

[3] = test system: Sweetpotato Whitefly (Bemisia Tabaci); assay: Efficacy test against sweetpotato whitefly, sprayed tomato leaf; settings: 125 ppm, emulsifiable concentrate diluted with water, adults (type B), after 2 days, 25° C.
Outline: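 Cut tomato leaves were sprayed with an emulsifiable concentrate diluted to 125 ppm compound, air-dried, then infested with seven pairs of type B adults. Leaves were held at 25 °C and 65% humidity, and mortality was counted after 2 days as dead/released × 100. The test was run twice.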

[4] = test system: Twospotted Spider Mite (Tetranychus Urticae Koch); assay: Efficacy test against twospotted spider mite, spray on kidney bean plant; settings: 125 ppm, wettable powder diluted with water, sprayed, female adults with resistance to an organophosphorus agent on kidney bean, after 3 days
Procedure: The wettable powder obtained according to Formulation of Formulation Example 1 was diluted with water so as to control the concentration of the compound to 125 ppm. Seventeen female adults of twospotted spider mite with resistance to an organophosphorus agent were inoculated on a first true leaf of a kidney bean plant (approximately 7 to 10 days after sprouting) sown in a 3 sun/size pot (9 cm). The diluted solution was sprayed. The pot was placed in a temperature-controlled room at a temperature of 25° C. and a humidity of 65%. After 3 days, the adulticidal rate was examined. The test was repeated twice.

C=C1SC(=Nc2ccc(C)cc2)C(=CSc2ccc(C(F)(F)F)cc2)CC1(C)C [Compound 2-90]
100%: insecticidal rate [1] | insecticidal rate [2] | insecticidal rate [3] | adulticidal rate [4]

C=C1SC(=Nc2ccc(C)cc2)C(=CSc2nc3ccccc3s2)CC1(C)C [Compound 2-94]
100%: insecticidal rate [1] | insecticidal rate [2] | insecticidal rate [3] | adulticidal rate [4]

C=C1SC(=Nc2ccc(C)cc2)C(=CSc2cccc(C(F)(F)F)c2)CC1(C)C [Compound 2-99]
100%: insecticidal rate [1] | insecticidal rate [2] | insecticidal rate [3] | adulticidal rate [4]

C=C1SC(=Nc2ccc(C)cc2)C(=CSc2ccccc2C(F)(F)F)CC1(C)C [Compound 2-100]
100%: insecticidal rate [1] | insecticidal rate [2] | insecticidal rate [3] | adulticidal rate [4]

C=C1SC(=Nc2ccc(OC)cc2)C(=CSc2ccc([Si](C)(C)C)s2)CC1(C)C [Compound 2-103]
100%: insecticidal rate [1] | insecticidal rate [2] | insecticidal rate [3] | adulticidal rate [4]

C=C1SC(=Nc2ccc(C)cc2)C(=CSc2cccc(C)c2)CC1(C)C [Compound 2-110]
100%: insecticidal rate [1] | insecticidal rate [2] | insecticidal rate [3] | adulticidal rate [4]

C=C1SC(=Nc2ccc(OC)cc2)C(=CSc2ccc(Br)s2)CC1(C)C [Compound 2-117]
100%: insecticidal rate [1] | insecticidal rate [2] | insecticidal rate [3] | adulticidal rate [4]

C=C1SC(=Nc2ccc(C)cc2)C(=CSc2ccc(F)cc2F)CC1(C)C [Compound 2-124]
100%: insecticidal rate [1] | insecticidal rate [2] | insecticidal rate [3] | adulticidal rate [4]

C=C1SC(=Nc2ccc(C)c(C)c2)C(=CSc2ccccc2)CC1(C)C [Compound 2-148]
100%: insecticidal rate [1] | insecticidal rate [2] | insecticidal rate [3] | adulticidal rate [4]

C=C1SC(=Nc2ccc(C)c(C)c2)C(=CSc2cccs2)CC1(C)C [Compound 2-149]
100%: insecticidal rate [1] | insecticidal rate [2] | insecticidal rate [3] | adulticidal rate [4]

C=C1SC(=Nc2ccc(C)c(C)c2)C(=CSc2ccc(F)cc2)CC1(C)C [Compound 2-150]
100%: insecticidal rate [1] | insecticidal rate [2] | insecticidal rate [3] | adulticidal rate [4]
